Series [1] concerns THP-1. Put plainly: Host cell toxicity: THP-1 host nuclei counts in the image-based assay. The following applies: for GI50: read-out: GI50 THP-1; for Selectivity: ratio between parasite GI50 and THP-1 GI50. The procedure:
(§1) Sterile, black, 96-well, clear bottom plates (Greiner Bio-One) were seeded with exponentially growing THP-1 (5×10^5cells/ml). THP-1 were treated with 0.1 µM phorbol myristate acetate (PMA, Sigma) at 37°C for 48 h to achieve differentiation into adherent, non-dividing macrophages. Maturation of THP-1 cells towards monocyte-macrophage like cells is essential to avoid parasitized cells being overgrown by replicating cells. After activation by PMA, cells were washed and incubated with complete RPMI medium containing stationary phase L. donovani promastigotes at a macrophage/promastigote ratio of 1/15. After 4 h incubation at 37°C, non-internalized promastigotes were removed by 2–3 successive washes with RPMI containing 5% FBS and 5% horse serum. Test compounds (10 µM), positive control (2 µM amphotericin B) or negative control (1% DMSO) were then added to the cultures using a Biomek FXp liquid handler (Beckman Coulter). Cultures were incubated at 37°C for 72 h. Cells were then washed with phosphate-buffered saline (PBS), fixed for 30 minutes with 4% formaldehyde, rinsed again with PBS, stained for 2 h with 4′,6′-diamidino-2-phenylindole (DAPI 300 nM) and finally washed with PBS. […] Images were acquired with an INCell Analyzer 1000 automated epi-fluorescent microscope (G.E. Healthcare). The excitation and emission filters used to detect DAPI were 350/50 nm and 460/40 nm respectively. Eight image fields were acquired per well with a 20X objective. The proprietary INCell Developer Toolbox 1.7 software was used for image analysis. Segmentation parameters were set to identify host nuclei with a minimum area of 250 µm^2 and parasite kinetoplast with an average area of 1 µm^2. The intensity of parasite nucleus was too low to be detected with a 20X objective. A border, representing the boundary of the cell, was drawn around the nucleus (total area between 700 and 2000 µm^2). Only parasites found within this area were included in the calculation to eliminate extracellular parasites. False positive parasite detection in the nucleus was also excluded from the calculation. Host cell nuclei and parasite kinetoplasts were counted and the ratio of parasites DNA to host nuclei was selected as the measurement output. Percentage inhibition of parasite growth was calculated as [1-(P/hcx-P/hc^+)/(P/hc^−-P/hc^+)]*100 where P/hcx, P/hc^+ and P/hc^− are parasite per host cell ratio for every well, positive control (amphotericin B) and negative control (DMSO) respectively. Calculation of Z' factor and GI50 curve fitting were carried out as described above.

Series [2] has as its system L. donovani intracellular amastigotes. Put plainly: Intracellular amastigote high-throughput image-based assay in infected THP-1 macrophages. Particulars: for GI50: L. donovani in THP-1, 72 h, parasites per host cell, read-out: GI50 Intracellular amastigote; for Primary screen against intracellular amastigotes, hit selection: 10 µM, duplicates, hit = 60% parasite growth inhibition and not more than 20% reduction in THP-1 numbers. Type of series: cell-based, Leishmania donovani. The protocol:
as §1

In series [3] the test system is L. donovani promastigotes. Put plainly: Promastigote high-throughput ATP-bioluminescence assay. In kind it is cell-based, Leishmania donovani. The following applies: for GI50: 72 h at 27°C, CellTiter-Glo, read-out: GI50 Promastigote. The protocol:
L. donovani promastigotes from an exponentially growing culture were diluted to 10^6/ml in RPMI containing 10% FBS and 10% BHT. The diluted culture (99 µl/well) was dispensed in sterile 96-well flat white opaque assay plates (Greiner Bio-One) using a WellMate multichannel dispenser (Matrix). 1 µl of 1 mM test compound dissolved in DMSO was added to the plates for a final concentration of 10 µM compound and 1% DMSO. Amphotericin B was added as a positive control (final concentration 2 µM, 1% DMSO) and as a negative control, 1 µl DMSO was added (1% final concentration). Compounds and controls were added to the assay plate with the robotic dispenser Biomek FXp liquid handler (Beckman Coulter). Promastigotes were incubated with the compounds for 72 h at 27°C. The parasites were then lysed by adding 50 µl of CellTiter-Glo (Promega) and placed on an orbital shaker for 5 min at room temperature. After lysis, the resulting ATP-bioluminescence was measured using the Analyst HT plate reader (Molecular Devices). Percentage inhibition of parasite growth was calculated for each well as [1-(RLUx-RLU^+)/(RLU^--RLU^+)]*100 where RLUx, RLU^+ and RLU^- are respectively the Relative Light Units for each well, positive (amphotericin B) and negative (DMSO) controls. A screening window coefficient, denoted Z' factor, was used to evaluate the performance of the assay. The Z' factor, calculated as 1-(3σc++3σc−)/(µc+−µc−) where σc+, σc−, µc+ and µc− are respectively the standard deviation and mean values of positive and negative controls, is reflective of the assay signal dynamic range and the data variation associated with signal measurement. […] GI50 curve fitting was carried out using GraphPad Prism 4 Software (GraphPad Software Inc., San Diego, CA).

Series [4] has as its system L. donovani axenic amastigotes. Put plainly: Dose response study against axenic amastigotes (CellTiter-Glo). Type of series: cell-based, Leishmania donovani. Particulars: for GI50: 72 h at 37°C, CellTiter-Glo, read-out: GI50 Axenic amastigote. The procedure: L. donovani axenic amastigotes (5×10^5 cells/ml in axenic amastigote media) were dispensed in sterile 96-well flat white opaque assay plates (Greiner Bio-One) using a WellMate multichannel dispenser (Matrix). […] 1% DMSO and amphotericin B (2 µM, 1% DMSO final concentration) were added as negative and positive controls respectively. Axenic amastigotes were incubated with the compounds for 72 h at 37°C with 5% CO2. Parasite viability was then measured using CellTiter-Glo as described above.

Setting [5] is: Leishmania donovani, THP-1, 72 h.
Setting [6] is: ratio between promastigote GI50 and intracellular amastigote GI50, >2 more active against intracellular amastigote, <0.4 more active against promastigotes.
Setting [7] is: PMA-differentiated infected THP-1, 72 h, host nuclei count.

Entries after “also recorded” stand apart in the source; their conditions may differ. Where a name gives a salt, the structure may show the parent alone. Read-outs that look alike come from different tables or passages of the source.

Broadly, the GI50 is the concentration that inhibits growth by half. Regarding `COC(=O)C1=C(C)NC(C)=C(C(=O)OCC(C)C)C1c1ccccc1[N+](=O)[O-]` (centres unmarked) [Nisoldipine], the concentration for 50% growth inhibition (GI50) in series [1] (Homo sapiens, THP-1, 72 h) is above 16.5 µM; in series [2] (setting [5]), 32.2 µM; in series [3] (Leishmania donovani), 9.85 µM; in series [4] (Leishmania donovani) it was 13.9 µM. For the same molecule, in series [1], the Selectivity is recorded as 1.67. Besides, the Specificity in series [2] (setting [6]) came out at 0.30.
As to `C=C1C(=O)O[C@H]2[C@H]1CC/C(C)=C/CC[C@@]1(C)O[C@@H]21` [Parthenolide], the GI50 in series [1] (Homo sapiens, THP-1, 72 h) was above 16.5 µM; in series [2] (setting [5]), above 50 µM; in series [3] (Leishmania donovani) it was 15.5 µM; in series [4] (Leishmania donovani) it was 4.35 µM. For the same molecule, the Selectivity in series [1] is given as 1.06. The Specificity in series [2] (setting [6]) turned out to be 0.31.
Regarding `N=C(N)c1ccc(OCCCCCOc2ccc(C(=N)N)cc2)cc1` [Pentamidine Isethionate], the 50% growth inhibitory concentration (GI50) is above 50 µM in series [1] (Homo sapiens, THP-1, 72 h); 9.55 µM in series [2] (setting [5]); 1.69 µM in series [3] (Leishmania donovani); 1.64 µM in series [4] (Leishmania donovani). Further, the Selectivity in series [1] was 29.49. Moreover, the “Primary screen against intracellular amastigotes, hit selection” value in series [2] is given as “active”. For the same molecule, the Specificity in series [2] (setting [6]) is given as 0.17.
Regarding `COc1cc2nc(N3CCN(C(=O)c4ccco4)CC3)nc(N)c2cc1OC.Cl` [Prazocin Hydrochloride], in series [1], the Selectivity was 3.46. In addition, the GI50 in series [1] (setting [7]) is 23.3 µM; in series [2], 6.73 µM; in series [3], 16.7 µM; in series [4], above 50 µM. Further, the Specificity in series [2] came out at 2.48.
On to `CN1CCc2cccc3c2[C@H]1Cc1ccc(O)c(O)c1-3` [R(-)-Apomorphine], for which, in series [1], the Selectivity stood at 6.1. For the same molecule, the 50% growth inhibitory concentration (GI50) in series [1] (setting [7]) is above 16.5 µM; in series [2], 2.7 µM; in series [3], 38.1 µM; in series [4], 5.2 µM. This molecule showed a Specificity in series [2] of 14.12.
For the molecule `CC[C@@H](C(=O)[C@@H](C)[C@@H](O)[C@H](C)[C@@H]1O[C@@H]([C@@H](CC)C(=O)O)CC[C@@H]1C)[C@H]1O[C@]2(C=C[C@@H](O)[C@]3(CC[C@@](C)([C@H]4CC[C@](O)(CC)[C@H](C)O4)O3)O2)[C@H](C)C[C@@H]1C` [Salinomycin], the 50% growth inhibitory concentration (GI50) was 16.1 µM in series [1] (Homo sapiens, THP-1, 72 h); 0.92 µM in series [2] (setting [5]); 2.71 µM in series [3] (Leishmania donovani); 0.06 µM in series [4] (Leishmania donovani). Moreover, the Selectivity in series [1] came out at 17.30. In series [2], this molecule returned a Specificity of 2.92.
For the molecule `CC/C(=C(\c1ccccc1)c1ccc(OCCN(C)C)cc1)c1ccccc1` [Tamoxifen Citrate], the GI50 in series [1] (Homo sapiens, THP-1, 72 h) was above 16.5 µM; in series [2] (setting [5]), 20.8 µM; in series [3] (Leishmania donovani), 10.2 µM; in series [4] (Leishmania donovani), above 50 µM. In addition, the Selectivity in series [1] is reported as 1.61. For the same molecule, the “Primary screen against intracellular amastigotes, hit selection” value in series [2] is listed as “active”. Also, in series [2] (setting [6]), the Specificity turned out to be 0.49.
Consider `CCOc1ccccc1OCCN[C@H](C)Cc1ccc(OC)c(S(N)(=O)=O)c1` [Tamsulosin], for which the GI50 in series [1] (Homo sapiens, THP-1, 72 h) was 28 µM; in series [2] (setting [5]), 6.3 µM; in series [3] (Leishmania donovani) it was 20 µM; in series [4] (Leishmania donovani) it was above 50 µM. The Selectivity in series [1] is 4.43. In series [2] (setting [6]), the Specificity was 3.17.
`CN(C)C(=S)SSC(=S)N(C)C` [Thiram]: the GI50 is 1.58 µM in series [1] (Homo sapiens, THP-1, 72 h); 10.4 µM in series [2] (setting [5]); 4.62 µM in series [3] (Leishmania donovani); 5.42 µM in series [4] (Leishmania donovani). Moreover, in series [1], the Selectivity was determined as 0.34. The Specificity in series [2] (setting [6]) was determined as 0.44.
As for `Cc1ccc2c(Cl)cc(Cl)c(O)c2n1` [chlorquinaldol], the 50% growth inhibitory concentration (GI50) in series [1] (Homo sapiens, THP-1, 72 h) worked out at 39.3 µM; in series [2] (setting [5]), 5.5 µM; in series [3] (Leishmania donovani) it was 6.3 µM; in series [4] (Leishmania donovani), 1.72 µM. Also, the Selectivity in series [1] is reported as 7.14. Moreover, the Specificity in series [2] (setting [6]) was determined as 1.14.
On to `C=CCN1CC[C@]23c4c5ccc(O)c4O[C@H]2C(=O)CC[C@@]3(O)[C@H]1C5` [naloxone], for which the “Toxicity to the host macrophage (in words)” value in series [1] (dose response, up to 50 µM) is reported as “not toxic”. Also, in series [2], the “Primary screen against intracellular amastigotes, hit selection” value is “not selected as a hit”. Besides, in series [2] (dose response, up to 50 µM), the “Activity against intracellular amastigotes (in words)” value is “inactive; also recorded: did not show any activity”. In addition, in series [3] (10 µM, hit = 60% parasite growth inhibition), the “Primary screen against promastigotes, hit selection” value is on record as “not selected as a hit”. Besides, in series [3] (dose response, up to 50 µM), the “Activity against promastigotes (in words)” value was “inactive”. Moreover, the “Activity against axenic amastigotes (in words)” value in series [4] (dose response, up to 50 µM) is “inactive”.

Values taken from publication PMC3139667, “A Screen against Leishmania Intracellular Amastigotes: Comparison to a Promastigote Screen and Identification of a Host Cell-Specific Hit” (PLoS Neglected Tropical Diseases, 2011).
